The text below walks through data of ChEMBL document CHEMBL3813626, “Synthesis, antimalarial properties and 2D-QSAR studies of novel triazole-quinine conjugates” (Bioorg Med Chem, 2016).

The test system of this assay is Plasmodium falciparum. As to the kind of experiment: Antimalarial activity against blood stage Plasmodium falciparum 3D7 infected in human erythrocytes assessed as reduction in parasitemia after 72 hrs by SYBR green I fluorescence-based method. The format is functional, organism-based. The conditions noted are these: 3D7, 72 h.

As a reminder, the IC50 is the concentration at which inhibition is half-maximal. Take `C=C[C@H]1CN2CC[C@H]1C[C@@H]2[C@H](OCCc1cn(Cc2ccccc2)nn1)c1ccnc2ccc(OC)cc12`: the half-inhibitory concentration (IC50) was found to be 0.03 µM.

As for `C=C[C@H]1CN2CC[C@H]1C[C@@H]2[C@H](OCc1cn(CC(=O)N[C@@H](Cc2ccccc2)C(=O)O)nn1)c1ccnc2ccc(OC)cc12`, the IC50 is 5.5 µM.

Turning to `C=C[C@H]1CN2CC[C@H]1C[C@@H]2[C@H](OCCc1cn(-c2ccccc2Cl)nn1)c1ccnc2ccc(OC)cc12`, the IC50 was 0.037 µM.

For `C=C[C@H]1CN2CC[C@H]1C[C@@H]2[C@H](OCc1cn(-c2ccccc2[N+](=O)[O-])nn1)c1ccnc2ccc(OC)cc12`, the half-inhibitory concentration (IC50) was 1.3 µM.

`C=C[C@H]1CN2CC[C@H]1C[C@@H]2[C@H](OCc1cn(-c2ccccc2Cl)nn1)c1ccnc2ccc(OC)cc12`: the 50% inhibitory concentration (IC50) stood at 20 µM.

For `C=C[C@H]1CN2CC[C@H]1C[C@@H]2[C@H](OCc1cn(-c2ccc([N+](=O)[O-])cc2)nn1)c1ccnc2ccc(OC)cc12`, the IC50 was determined as 0.64 µM.

Turning to `C=C[C@H]1CN2CC[C@H]1C[C@@H]2[C@H](OCCc1cn(-c2ccc(Cl)cc2)nn1)c1ccnc2ccc(OC)cc12`, the IC50 amounted to 0.041 µM.

For `C=C[C@H]1CN2CC[C@H]1C[C@@H]2[C@H](OCc1cn([C@H](C(=O)O)C(C)C)nn1)c1ccnc2ccc(OC)cc12`, the IC50 was 20 µM.

On to `C=C[C@H]1CN2CC[C@H]1C[C@@H]2[C@H](OCc1cn(-c2ccccc2C#N)nn1)c1ccnc2ccc(OC)cc12`, for which the IC50 is 1 µM.

Turning to `C=C[C@H]1CN2CC[C@H]1C[C@@H]2[C@H](OCCc1cn(-c2ccccc2[N+](=O)[O-])nn1)c1ccnc2ccc(OC)cc12`, the IC50 came out at 3.3 µM.

On to `C=C[C@H]1CN2CC[C@H]1C[C@@H]2[C@H](OCc1cn(-c2ccc(OC)cc2)nn1)c1ccnc2ccc(OC)cc12`, for which the concentration for half-maximal inhibition (IC50) stood at 2.2 µM.

For `C=C[C@H]1CN2CC[C@H]1C[C@@H]2[C@H](OCc1cn([C@@H](CC(C)C)C(=O)O)nn1)c1ccnc2ccc(OC)cc12`, the IC50 worked out at 31 µM.

Turning to `C=C[C@H]1CN2CC[C@H]1C[C@@H]2[C@H](OCCc1cn(-c2ccc(C)cc2)nn1)c1ccnc2ccc(OC)cc12`, the IC50 worked out at 0.04 µM.

As to `C=C[C@H]1CN2CC[C@H]1C[C@@H]2[C@H](OCc1cn(-c2ccccn2)nn1)c1ccnc2ccc(OC)cc12`, the IC50 is 5.7 µM.

Turning to `C=C[C@H]1CN2CC[C@H]1C[C@@H]2[C@H](OCCc1cn(-c2ccc(OC)cc2)nn1)c1ccnc2ccc(OC)cc12`, the IC50 was 0.043 µM.

As for `C=C[C@H]1CN2CC[C@H]1C[C@@H]2[C@H](OCc1cn(CCCc2ccccc2)nn1)c1ccnc2ccc(OC)cc12`, the concentration for half-maximal inhibition (IC50) was determined as 0.89 µM.

Consider `C=C[C@H]1CN2CC[C@H]1C[C@@H]2[C@H](OCc1cn(Cc2ccc(C)cc2)nn1)c1ccnc2ccc(OC)cc12`, for which the concentration for half-maximal inhibition (IC50) stood at 0.45 µM.

For the compound `C=C[C@H]1CN2CC[C@H]1C[C@@H]2[C@H](OCc1cn(/C=C/n2nnc3ccccc32)nn1)c1ccnc2ccc(OC)cc12`, the half-maximal inhibitory concentration (IC50) amounted to 1.5 µM.

For `C=C[C@H]1CN2CC[C@H]1C[C@@H]2[C@H](OCc1cn(Cn2nnc3ccccc32)nn1)c1ccnc2ccc(OC)cc12`, the IC50 was found to be 4.8 µM.

On to `C=C[C@H]1CN2CC[C@H]1C[C@@H]2[C@H](OCc1cn(CC(OC)OC)nn1)c1ccnc2ccc(OC)cc12`, for which the IC50 was 3.4 µM.

For `C=C[C@H]1CN2CC[C@H]1C[C@@H]2[C@H](OCc1cn([C@@H](Cc2ccccc2)C(=O)O)nn1)c1ccnc2ccc(OC)cc12`, the IC50 turned out to be 7.7 µM.

Turning to `C=C[C@H]1CN2CC[C@H]1C[C@@H]2[C@H](OCc1cn(Cc2ccc([N+](=O)[O-])cc2)nn1)c1ccnc2ccc(OC)cc12`, the IC50 stood at 1.2 µM.

On to `C=C[C@H]1CN2CC[C@H]1C[C@@H]2[C@H](OCc1cn([C@@H](Cc2c[nH]c3ccccc23)C(=O)O)nn1)c1ccnc2ccc(OC)cc12`, for which the 50% inhibitory concentration (IC50) was found to be 8.4 µM.

On to `C=C[C@H]1CN2CC[C@H]1C[C@@H]2[C@H](OCc1cn(-c2cccc(C#N)c2)nn1)c1ccnc2ccc(OC)cc12`, for which the IC50 came to 2 µM.

`C=C[C@H]1CN2CC[C@H]1C[C@@H]2[C@H](OCc1cn([C@H](C(=O)N(CC)CC)C(C)C)nn1)c1ccnc2ccc(OC)cc12`: the IC50 worked out at 0.88 µM.

As for `C=C[C@H]1CN2CC[C@H]1C[C@@H]2[C@H](OCc1cn(Cc2ccccc2)nn1)c1ccnc2ccc(OC)cc12`, the half-inhibitory concentration (IC50) came to 0.79 µM.

For the compound `C=C[C@H]1CN2CC[C@H]1C[C@@H]2[C@H](OCc1cn(-c2ccc(Cl)cc2)nn1)c1ccnc2ccc(OC)cc12`, the IC50 worked out at 0.9 µM.

As to `C=C[C@H]1CN2CC[C@H]1C[C@@H]2[C@H](OCc1cn([C@@H](C)C(=O)O)nn1)c1ccnc2ccc(OC)cc12`, the IC50 was determined as 41 µM.

In the case of `C=C[C@H]1CN2CC[C@H]1C[C@@H]2[C@H](OCCc1cn(-c2ccc([N+](=O)[O-])cc2)nn1)c1ccnc2ccc(OC)cc12`, the IC50 amounted to 0.345 µM.

`C=C[C@H]1CN2CC[C@H]1C[C@@H]2[C@H](OCCc1cn(CCCc2ccccc2)nn1)c1ccnc2ccc(OC)cc12`: the IC50 was 0.027 µM.

For the compound `C=C[C@H]1CN2CC[C@H]1C[C@@H]2[C@H](OCc1cn(CC(=O)N[C@@H](CC(C)C)C(=O)O)nn1)c1ccnc2ccc(OC)cc12`, the IC50 came to 12 µM.

`C=C[C@H]1CN2CC[C@H]1C[C@H]2[C@H](O)c1ccnc2ccc(OC)cc12` [QUININE]: the IC50 was 0.058 µM.
